Assay results published in patent US20100322882A1, “SOLUBILIZING AGENTS FOR ACTIVE OR FUNCTIONAL ORGANIC COMPOUNDS” (ISP INVESTMENTS INC., priority 2006, published 2010).

Assays:
[1] = Solubility of solid organic sunscreens in solubilizers (25° C.); format: physicochemical; settings: for Solubility of MBC in the solvent: solute 4-Methylbenzylidene camphor (MBC); for Solubility of E-517 (Avobenzone) in the solvent: solute Avobenzone (E-517); for Solubility of BEMT in the solvent: solute Bis-ethylhexyloxyphenol methoxyphenyl triazine (BEMT); for Solubility of EHT in the solvent: solute Ethylhexyl triazone (EHT); for Solubility of E-567 (Oxybenzone) in the solvent: solute Oxybenzone (E-567)
Description: Upon cooling to 25° C., a few seed crystals (<10 mg) of the sunscreen were added to hasten equilibration. The solutions were stored in the dark in a constant temperature chamber at 25° C. Each was sampled weekly, and the ca. 0.1 g sample was filtered through a 0.45μ syringe filter and analyzed by GLC or HPLC, calibrated using standard solutions, until the value for wt. % of solute was constant.

[2] = UV absorption spectra of sunscreens in selected solvents; format: physicochemical; parameters: λmax of E-517 / λmax of E-567 / λmax of BEMT / λmax of EHT: unit not given here; settings: for ε of BEMT at λmax / λmax of BEMT: 10 mg/L BEMT in the solvent; for ε of E-517 at λmax / λmax of E-517: 10 mg/L E-517 in the solvent; for ε of E-567 at λmax / λmax of E-567: 10 mg/L E-567 in the solvent; for ε of EHT at λmax / λmax of EHT: 10 mg/L EHT in the solvent; for ε of MBC at λmax / λmax of MBC: 10 mg/L MBC in the solvent
Description: Solutions containing 10 mg/L of sunscreen in selected solvents were prepared, and their UV spectra were measured using a Cary 1E UV-Visible spectrophotometer. […] They are also higher in 2-phenylethyl cyclohexanoate for Escalol® 517 and Escalol® 567.

[3] = second (shorter wavelength) band

Question: What does the source list for `CC(=O)OCCc1ccccc1` [2-phenylethyl acetate]?
Answer: Solubility of MBC in the solvent [1]: 44 wt. %; Solubility of E-517 (Avobenzone) in the solvent [1]: 26 wt. %; Solubility of BEMT in the solvent [1]: 26 wt. %; Solubility of EHT in the solvent [1]: 14 wt. %; Solubility of E-567 (Oxybenzone) in the solvent [1]: 44 wt. %

Question: Which “Solubility of MBC in the solvent” value [1] does the source give for `CC(C)CCCCCCCOC(=O)C(C)(C)C` [isodecyl neopentanoate, reference compound] here?
Answer: 26 wt. %

Question: What about the “Solubility of E-517 (Avobenzone) in the solvent” value (“Solubility of E-517 (Avobenzone)” for short) [1] of the same compound?
Answer: 8 wt. %

Question: What about the “Solubility of BEMT in the solvent” value [1] of the same compound?
Answer: 5 wt. %

Question: What about the “Solubility of EHT in the solvent” value [1] of the same compound?
Answer: 3 wt. %

Question: And the “Solubility of E-567 (Oxybenzone) in the solvent” value (shortened to “Solubility of E-567 (Oxybenzone)”) [1]?
Answer: 11 wt. %

Question: With `CCCCCCCC(=O)OCCc1ccccc1` [2-phenylethyl octanoate] as the compound, how does the “Solubility of MBC in the solvent” value [1] read?
Answer: 36 wt. %

Question: What about the “Solubility of E-517 (Avobenzone)” value [1] of the same compound?
Answer: 19 wt. %

Question: And the “Solubility of BEMT in the solvent” value [1]?
Answer: 23 wt. %

Question: What about the “Solubility of EHT in the solvent” value [1] of the same compound?
Answer: 8 wt. %

Question: What about the “Solubility of E-567 (Oxybenzone)” value [1] of the same compound?
Answer: 27 wt. %

Question: What does the source list for `O=C(OCCc1ccccc1)C1CCCCC1` [2-phenylethyl cyclohexanoate, 2-Phenylethyl Cyclohexanecarboxylate]?
Answer: ε of BEMT at λmax ([2]; first (longer wavelength) band): (49,000); λmax of BEMT ([2]; first (longer wavelength) band): 345; ε of E-517 at λmax ([2]; first (longer wavelength) band): (34,500); λmax of E-517 ([2]; first (longer wavelength) band): 359; ε of E-567 at λmax ([2]; first (longer wavelength) band): (12,100); λmax of E-567 ([2]; first (longer wavelength) band): 326; ε of EHT at λmax [2, 3]: (47,300); λmax of EHT [2, 3]: 317; ε of MBC at λmax [2, 3]: (10,400); λmax of MBC [2, 3]: 317 nm; Solubility of MBC in the solvent [1]: 37 wt. %; Solubility of E-517 (Avobenzone) in the solvent [1]: 20 wt. %; Solubility of BEMT in the solvent [1]: 32 wt. %; Solubility of EHT in the solvent [1]: 10 wt. %; Solubility of E-567 (Oxybenzone) in the solvent [1]: 32 wt. %

Question: Which “Solubility of MBC in the solvent” value [1] does the source give for `CCCCC(CC)C(=O)OCCc1ccccc1` (stereo not shown) [2-phenylethyl 2-ethylhexanoate] here?
Answer: 34 wt. %

Question: What about the “Solubility of E-517 (Avobenzone)” value [1] of the same compound?
Answer: 17 wt. %

Question: What about the “Solubility of BEMT in the solvent” value [1] of the same compound?
Answer: 18 wt. %

Question: And the “Solubility of EHT in the solvent” value [1]?
Answer: 4 wt. %

Question: And the “Solubility of E-567 (Oxybenzone)” value [1]?
Answer: 25 wt. %

Question: What does the source list for `CCCC(=O)OCc1ccccc1` [benzyl butyrate]?
Answer: Solubility of E-517 (Avobenzone) in the solvent [1]: 24 wt. %; Solubility of BEMT in the solvent [1]: 32 wt. %; Solubility of EHT in the solvent [1]: 10 wt. %; Solubility of E-567 (Oxybenzone) in the solvent [1]: 39 wt. %

Question: What does the source list for `CCC(=O)OC(C)c1ccccc1` (stereo not shown) [1-phenylethyl propionate]?
Answer: Solubility of MBC in the solvent [1]: 44 wt. %; Solubility of E-517 (Avobenzone) in the solvent [1]: 23 wt. %; Solubility of BEMT in the solvent [1]: 26 wt. %; Solubility of EHT in the solvent [1]: 10 wt. %; Solubility of E-567 (Oxybenzone) in the solvent [1]: 38 wt. %

Question: What does the source list for `CC(C)(C)C(=O)OCCc1ccccc1` [2-phenylethyl neopentanoate]?
Answer: Solubility of MBC in the solvent [1]: 38 wt. %; Solubility of E-517 (Avobenzone) in the solvent [1]: 19 wt. %; Solubility of BEMT in the solvent [1]: 28 wt. %; Solubility of EHT in the solvent [1]: 5 wt. %; Solubility of E-567 (Oxybenzone) in the solvent [1]: 29 wt. %

Question: With `CCCCC(=O)OCCc1ccccc1` [2-phenylethyl pentanoate, 2-Phenylethyl Pentanoate] as the compound, how does the “ε of BEMT at λmax” value ([2]; first (longer wavelength) band) read?
Answer: (48,000)

Question: And the “λmax of BEMT” value ([2]; first (longer wavelength) band)?
Answer: 345

Question: And the “ε of BEMT at λmax” value [2, 3]?
Answer: (42,900)

Question: What about the “λmax of BEMT” value [2, 3] of the same compound?
Answer: 312

Question: And the “ε of E-517 at λmax” value ([2]; first (longer wavelength) band)?
Answer: (34,100)

Question: What about the “λmax of E-517” value ([2]; first (longer wavelength) band) of the same compound?
Answer: 359

Question: What about the “ε of E-567 at λmax” value ([2]; first (longer wavelength) band) of the same compound?
Answer: (9,600)

Question: And the “λmax of E-567” value ([2]; first (longer wavelength) band)?
Answer: 327

Question: What about the “ε of E-567 at λmax” value [2, 3] of the same compound?
Answer: (14,300)

Question: What about the “λmax of E-567” value [2, 3] of the same compound?
Answer: 287

Question: What about the “ε of EHT at λmax” value [2, 3] of the same compound?
Answer: (123,000)

Question: What about the “λmax of EHT” value [2, 3] of the same compound?
Answer: 312

Question: And the “ε of MBC at λmax” value [2, 3]?
Answer: (23,600)

Question: What about the λmax of MBC [2, 3] of the same compound?
Answer: 298 nm

Question: And the “Solubility of MBC in the solvent” value [1]?
Answer: 41 wt. %

Question: What about the “Solubility of E-517 (Avobenzone)” value [1] of the same compound?
Answer: 22 wt. %

Question: And the “Solubility of BEMT in the solvent” value [1]?
Answer: 27 wt. %

Question: And the “Solubility of EHT in the solvent” value [1]?
Answer: 10 wt. %

Question: And the “Solubility of E-567 (Oxybenzone)” value [1]?
Answer: 35 wt. %

Question: With “C12-15 alkyl benzoate [reference compound]” as the compound, how does the “ε of BEMT at λmax” value ([2]; first (longer wavelength) band) read?
Answer: (43,800)

Question: And the “λmax of BEMT” value ([2]; first (longer wavelength) band)?
Answer: 347

Question: And the “ε of BEMT at λmax” value [2, 3]?
Answer: (40,800)

Question: What about the “λmax of BEMT” value [2, 3] of the same compound?
Answer: 313

Question: And the “ε of E-517 at λmax” value ([2]; first (longer wavelength) band)?
Answer: (33,400)

Question: And the “λmax of E-517” value ([2]; first (longer wavelength) band)?
Answer: 358

Question: What about the “ε of E-567 at λmax” value ([2]; first (longer wavelength) band) of the same compound?
Answer: (9,260)

Question: What about the “λmax of E-567” value ([2]; first (longer wavelength) band) of the same compound?
Answer: 328

Question: What about the “ε of E-567 at λmax” value [2, 3] of the same compound?
Answer: (9,310)

Question: And the “λmax of E-567” value [2, 3]?
Answer: 298

Question: And the “ε of EHT at λmax” value [2, 3]?
Answer: (117,000)

Question: What about the “λmax of EHT” value [2, 3] of the same compound?
Answer: 313

Question: And the “ε of MBC at λmax” value [2, 3]?
Answer: (22,000)

Question: What about the λmax of MBC [2, 3] of the same compound?
Answer: 301 nm

Question: What does the source list for `CC(O)C(=O)OCc1ccccc1` (stereo not shown) [benzyl lactate]?
Answer: Solubility of MBC in the solvent [1]: 30 wt. %; Solubility of E-517 (Avobenzone) in the solvent [1]: 11 wt. %; Solubility of BEMT in the solvent [1]: 2 wt. %; Solubility of EHT in the solvent [1]: 8 wt. %; Solubility of E-567 (Oxybenzone) in the solvent [1]: 30 wt. %

Question: With `CCCCCCCCOC(=O)OCc1ccccc1` [benzyl octyl carbonate] as the compound, how does the “Solubility of MBC in the solvent” value [1] read?
Answer: 35 wt. %

Question: What about the “Solubility of E-517 (Avobenzone)” value [1] of the same compound?
Answer: 17 wt. %

Question: What about the “Solubility of BEMT in the solvent” value [1] of the same compound?
Answer: 18 wt. %

Question: What about the “Solubility of EHT in the solvent” value [1] of the same compound?
Answer: 6 wt. %

Question: What about the “Solubility of E-567 (Oxybenzone)” value [1] of the same compound?
Answer: 27 wt. %

Question: What does the source list for `CCCCCCCCOC(=O)OCCCCCCCC` [dioctyl carbonate, reference compound]?
Answer: Solubility of MBC in the solvent [1]: 29 wt. %; Solubility of E-517 (Avobenzone) in the solvent [1]: 13 wt. %; Solubility of BEMT in the solvent [1]: 10 wt. %; Solubility of EHT in the solvent [1]: 7 wt. %; Solubility of E-567 (Oxybenzone) in the solvent [1]: 16 wt. %

Question: Which “Solubility of MBC in the solvent” value [1] does the source give for `CCC(=O)OCCOc1ccccc1` [2-phenoxyethyl propionate] here?
Answer: 39 wt. %

Question: What about the “Solubility of E-517 (Avobenzone)” value [1] of the same compound?
Answer: 21 wt. %

Question: What about the “Solubility of BEMT in the solvent” value [1] of the same compound?
Answer: 13 wt. %

Question: What about the “Solubility of EHT in the solvent” value [1] of the same compound?
Answer: 6 wt. %

Question: What about the “Solubility of E-567 (Oxybenzone)” value [1] of the same compound?
Answer: 38 wt. %

Question: Which “Solubility of MBC in the solvent” value [1] does the source give for `O=C(OCCc1ccccc1)C1CC1` [2-phenylethyl cyclopropanoate, 2-Phenylethyl Cyclopropanecarboxylate] here?
Answer: 42 wt. %

Question: And the “Solubility of E-517 (Avobenzone)” value [1]?
Answer: 24 wt. %

Question: And the “Solubility of BEMT in the solvent” value [1]?
Answer: 27 wt. %

Question: What about the “Solubility of EHT in the solvent” value [1] of the same compound?
Answer: 16 wt. %

Question: And the “Solubility of E-567 (Oxybenzone)” value [1]?
Answer: 39 wt. %

Question: For `CCC(=O)OCCc1ccccc1` [2-phenylethyl propionate], which “Solubility of MBC in the solvent” value [1] is on record?
Answer: 44 wt. %

Question: What about the “Solubility of E-517 (Avobenzone)” value [1] of the same compound?
Answer: 25 wt. %

Question: What about the “Solubility of BEMT in the solvent” value [1] of the same compound?
Answer: 33 wt. %

Question: What about the “Solubility of EHT in the solvent” value [1] of the same compound?
Answer: 12 wt. %

Question: And the “Solubility of E-567 (Oxybenzone)” value [1]?
Answer: 40 wt. %
